Structures can show the parent of a compound that is named as a salt. Where two headings read alike, the source gives them in different places.
How the values were obtained:
rats = tested on: rats; parameters: species or system male Sprague-Dawley rats; conditions: rat, in vivo
[1] = parenteral, on a weight basis; cited from earlier work
[2] = intramuscular injection or intravenous injection; cited from earlier work
[3] = cited from earlier work; for Plasma concentrations: intravenous about 0.3 mg
[4] = intravenous, single dose of about 0.3 mg

| Compound | Analgesic duration (rats; HCl) | duration of analgesic action (rats; HCl) | analgesic potency, times as that of meperidine [1] | analgesic potency, times as that of pentazocine [1] | duration of action [2] | duration of analgesic action (rats) | duration of action (rats; sc) | Cmax ([3]; 0.4 mg sublingual dose) | Tmax ([3]; 0.4 mg sublingual dose) | systemic availability ([3]; 0.4 mg sublingual dose) | Total plasma clearance ([3]; conscious postoperative patients) | mean peak plasma buprenorphine concentrations ([3]; intramuscular second 0.3-mg dose 3 hours after the initial intravenous dose) | plasma buprenorphine concentrations ([3]; intramuscular second 0.3-mg dose, after about 3 hours) | Plasma concentrations ([3]; after about 5 minutes) | Plasma concentrations ([3]; after about 3 hours) | mean peak plasma drug concentrations [3, 4] | time of mean peak plasma drug concentrations [3, 4] |
| --- | --- | --- | --- | --- | --- | --- | --- | --- | --- | --- | --- | --- | --- | --- | --- | --- | --- |
| CO[C@]12CC[C@@]3(C[C@@H]1[C@](C)(O)C(C)(C)C)[C@H]1Cc4ccc(O)c5c4[C@@]3(CCN1CC1CC1)[C@H]2O5 [Buprenorphine HCl] | 5 h | 3 to 5 h |  |  |  |  |  |  |  |  |  |  |  |  |  |  |  |
| CO[C@]12CC[C@@]3(C[C@@H]1[C@](C)(O)C(C)(C)C)[C@H]1Cc4ccc(O)c5c4[C@@]3(CCN1CC1CC1)[C@H]2O5 [Buprenorphine base, (5α, 7α (S)-17-cyclopropyl-methyl)-α -(1,1-dimethylethyl)-4,5-epoxy-18,19-dihydro-3-hydroxy-6-methoxy-α -methyl-6,14-ethenomorphinan-7-methanol] |  |  | about 600 times | about 200 times | 6 to 8 h | 48 to 50 h | 48 to 50 h | 0.5 ± 0.06 ng/mL | 3.5 ± 0.667 h | 57.7±6% | approximately 0.28 L/minute | about 3.6 ng/mL | about 0.4 ng/mL | about 9 ng/mL | about 0 .4 ng/mL | about 18 ng/mL | ≤ 2 min |

From patent EP1422230B1 (priority 2002, dated 2004)
